Reference: BindingDB's records for patent US20240174621 (Hoffmann-La Roche, 2024)

Assays:
Test in all cases: Kinase Assay
[1] = target: RAF proto-oncogene serine/threonine-protein kinase (Homo sapiens, UniProt P04049)
Description: (§1) The assay is not in detail.

[2] = target: Serine/threonine-protein kinase B-raf (Homo sapiens, UniProt P15056)
Description: as §1

[3] = target: Serine/threonine-protein kinase B-raf [V600E] (Homo sapiens, UniProt P15056, V600E)
Description: as §1

[4] = target: Tyrosine-protein kinase CSK (Homo sapiens, UniProt P41240)
Description: as §1

[5] = target: Tyrosine-protein kinase Lck (Homo sapiens, UniProt P06239)
Description: as §1

Sequence of Tyrosine-protein kinase Lck (P06239 whole entry): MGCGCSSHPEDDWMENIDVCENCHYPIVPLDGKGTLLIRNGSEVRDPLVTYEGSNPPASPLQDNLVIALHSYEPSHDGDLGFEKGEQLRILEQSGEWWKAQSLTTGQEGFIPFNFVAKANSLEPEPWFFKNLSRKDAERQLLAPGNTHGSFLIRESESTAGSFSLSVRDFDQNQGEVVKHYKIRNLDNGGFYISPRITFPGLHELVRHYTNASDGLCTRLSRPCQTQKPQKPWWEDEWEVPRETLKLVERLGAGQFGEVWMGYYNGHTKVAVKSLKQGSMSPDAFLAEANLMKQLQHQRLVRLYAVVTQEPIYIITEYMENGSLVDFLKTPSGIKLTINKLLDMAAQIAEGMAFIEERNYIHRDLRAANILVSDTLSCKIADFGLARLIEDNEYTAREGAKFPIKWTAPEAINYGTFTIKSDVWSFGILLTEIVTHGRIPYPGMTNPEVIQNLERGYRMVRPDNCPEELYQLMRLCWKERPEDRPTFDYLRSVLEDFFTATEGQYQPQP
Sequence of Serine/threonine-protein kinase B-raf (P15056 whole entry): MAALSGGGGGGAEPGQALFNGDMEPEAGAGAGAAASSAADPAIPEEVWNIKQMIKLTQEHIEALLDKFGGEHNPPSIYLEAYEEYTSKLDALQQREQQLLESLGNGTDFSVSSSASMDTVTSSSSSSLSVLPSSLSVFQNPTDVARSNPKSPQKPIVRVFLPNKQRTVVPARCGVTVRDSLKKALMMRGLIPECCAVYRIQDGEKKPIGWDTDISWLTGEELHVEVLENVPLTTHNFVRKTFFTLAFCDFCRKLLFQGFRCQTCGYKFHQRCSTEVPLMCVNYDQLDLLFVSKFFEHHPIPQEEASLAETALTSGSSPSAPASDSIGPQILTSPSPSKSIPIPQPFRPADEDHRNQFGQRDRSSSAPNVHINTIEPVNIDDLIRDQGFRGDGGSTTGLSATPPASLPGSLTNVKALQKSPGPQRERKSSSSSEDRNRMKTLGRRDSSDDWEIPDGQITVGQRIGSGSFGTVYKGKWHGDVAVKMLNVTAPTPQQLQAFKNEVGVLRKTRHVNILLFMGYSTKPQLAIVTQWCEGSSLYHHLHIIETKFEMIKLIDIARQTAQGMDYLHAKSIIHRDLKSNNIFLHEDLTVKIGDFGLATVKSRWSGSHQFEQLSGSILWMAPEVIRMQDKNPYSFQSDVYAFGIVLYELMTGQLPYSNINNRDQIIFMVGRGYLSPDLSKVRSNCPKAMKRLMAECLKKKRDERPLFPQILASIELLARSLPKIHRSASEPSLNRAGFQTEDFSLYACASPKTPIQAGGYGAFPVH
Sequence of Serine/threonine-protein kinase B-raf [V600E] (P15056 2-766 V600E limits assumed): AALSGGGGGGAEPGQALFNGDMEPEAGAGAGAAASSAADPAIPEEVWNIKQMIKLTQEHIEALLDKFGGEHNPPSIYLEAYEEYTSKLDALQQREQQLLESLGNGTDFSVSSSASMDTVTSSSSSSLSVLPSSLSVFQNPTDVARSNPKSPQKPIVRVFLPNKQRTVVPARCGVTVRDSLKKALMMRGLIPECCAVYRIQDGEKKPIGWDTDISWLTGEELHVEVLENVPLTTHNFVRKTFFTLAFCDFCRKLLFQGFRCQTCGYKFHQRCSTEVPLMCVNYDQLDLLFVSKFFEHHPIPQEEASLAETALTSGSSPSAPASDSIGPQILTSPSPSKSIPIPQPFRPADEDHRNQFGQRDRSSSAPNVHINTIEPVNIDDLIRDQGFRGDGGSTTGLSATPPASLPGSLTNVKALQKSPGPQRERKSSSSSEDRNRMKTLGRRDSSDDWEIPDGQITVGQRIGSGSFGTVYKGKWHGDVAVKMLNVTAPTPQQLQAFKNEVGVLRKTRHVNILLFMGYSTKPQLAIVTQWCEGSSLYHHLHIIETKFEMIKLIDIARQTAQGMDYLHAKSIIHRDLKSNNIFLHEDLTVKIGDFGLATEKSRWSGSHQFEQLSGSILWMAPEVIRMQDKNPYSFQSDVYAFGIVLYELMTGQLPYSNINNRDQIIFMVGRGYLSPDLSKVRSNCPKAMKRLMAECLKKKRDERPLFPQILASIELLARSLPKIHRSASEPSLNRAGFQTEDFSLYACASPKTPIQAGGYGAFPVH
Sequence of Tyrosine-protein kinase CSK (P41240 whole entry): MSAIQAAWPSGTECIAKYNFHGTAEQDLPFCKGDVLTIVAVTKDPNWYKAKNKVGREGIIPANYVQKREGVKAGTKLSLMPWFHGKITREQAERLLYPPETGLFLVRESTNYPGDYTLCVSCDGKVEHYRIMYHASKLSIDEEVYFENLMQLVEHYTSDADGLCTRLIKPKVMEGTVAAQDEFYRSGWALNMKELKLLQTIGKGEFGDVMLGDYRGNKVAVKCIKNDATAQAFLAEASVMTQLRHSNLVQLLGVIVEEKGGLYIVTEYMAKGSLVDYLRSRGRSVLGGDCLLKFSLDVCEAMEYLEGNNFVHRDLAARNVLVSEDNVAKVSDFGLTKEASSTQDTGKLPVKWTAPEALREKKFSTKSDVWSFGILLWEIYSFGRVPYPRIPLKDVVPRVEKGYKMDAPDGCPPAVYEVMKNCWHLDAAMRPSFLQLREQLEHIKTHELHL
Sequence of RAF proto-oncogene serine/threonine-protein kinase (P04049 whole entry): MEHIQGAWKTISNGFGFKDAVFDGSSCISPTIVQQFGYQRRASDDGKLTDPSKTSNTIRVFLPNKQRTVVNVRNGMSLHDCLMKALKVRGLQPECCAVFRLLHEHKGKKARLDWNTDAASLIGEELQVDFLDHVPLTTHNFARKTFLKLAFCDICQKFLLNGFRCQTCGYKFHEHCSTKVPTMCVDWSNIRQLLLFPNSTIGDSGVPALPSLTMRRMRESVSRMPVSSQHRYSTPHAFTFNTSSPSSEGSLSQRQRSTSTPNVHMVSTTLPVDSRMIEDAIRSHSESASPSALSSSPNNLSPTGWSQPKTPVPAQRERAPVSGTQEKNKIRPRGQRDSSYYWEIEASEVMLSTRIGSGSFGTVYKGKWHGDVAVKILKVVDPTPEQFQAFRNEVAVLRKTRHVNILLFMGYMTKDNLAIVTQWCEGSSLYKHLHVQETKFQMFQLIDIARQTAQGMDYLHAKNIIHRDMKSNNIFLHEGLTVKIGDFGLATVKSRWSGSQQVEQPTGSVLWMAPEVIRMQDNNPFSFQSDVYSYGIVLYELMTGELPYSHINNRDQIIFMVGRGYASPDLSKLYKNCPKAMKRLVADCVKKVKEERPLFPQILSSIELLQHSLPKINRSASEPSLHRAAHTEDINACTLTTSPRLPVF

Structure (SMILES) | Kd [1] [nM] | Kd [2] [nM] | Kd [3] [nM] | Kd [4] [nM] | Kd [5] [nM]
Cn1cnc2ccc(Oc3c(Cl)ccc(NS(=O)(=O)N4CCCC4)c3C#N)cc2c1=O [US20240174621, Example AR-31] | 190 | 45.9 | 119 | 1210 | 12000
CN(C)S(=O)(=O)Nc1ccc(Cl)c(Oc2ccc3ncn(C)c(=O)c3c2)c1C#N [US20240174621, Example AR-30] | 822 | 174 | 504 | 8010 | 10400
